This note sets out measurements from patent US20170280720A1, “ARGININE […] INHIBITORS AND USES THEREOF” (EPIZYME, INC., priority 2014, published 2017).

The target of experiment [1] is PRMT5 (Homo sapiens, UniProt O14744). In words: PRMT5 IC50 (Table 2; no method described). The format is biochemical. Conditions: read-out: PRMT5_ IC50.
In experiment [2] the target is T1, Human CARM1 (PRMT4) (Homo sapiens, UniProt Q86X55).
T1 construct: Flag-CARM1-His; made in house; host or cells: HEK 293F cells (BacMam baculovirus, pFastBacMam)
T1 sequence (Q86X55 2-585 isoform Q86X55-1): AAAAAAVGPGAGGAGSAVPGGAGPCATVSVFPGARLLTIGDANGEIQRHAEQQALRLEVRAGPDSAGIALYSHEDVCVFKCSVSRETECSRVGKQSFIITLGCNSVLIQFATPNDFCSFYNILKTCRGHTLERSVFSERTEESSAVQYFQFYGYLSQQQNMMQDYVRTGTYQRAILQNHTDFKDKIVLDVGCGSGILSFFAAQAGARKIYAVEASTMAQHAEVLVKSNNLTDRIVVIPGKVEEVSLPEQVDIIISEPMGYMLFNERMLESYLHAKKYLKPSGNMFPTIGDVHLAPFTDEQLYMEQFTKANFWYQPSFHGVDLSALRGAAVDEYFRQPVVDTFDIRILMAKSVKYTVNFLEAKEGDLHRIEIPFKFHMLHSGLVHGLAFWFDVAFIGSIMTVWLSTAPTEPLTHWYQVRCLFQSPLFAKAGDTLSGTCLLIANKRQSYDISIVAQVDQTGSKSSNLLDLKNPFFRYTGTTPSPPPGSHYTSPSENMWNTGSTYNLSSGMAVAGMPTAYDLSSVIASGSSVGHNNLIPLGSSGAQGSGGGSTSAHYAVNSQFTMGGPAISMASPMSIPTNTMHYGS
In words: CARM1 biochemical assay (3H-SAM Flashplate, peptide substrate). Conditions: read-out: CARM1_ IC50. In a few lines: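 FLAG/His-tagged human CARM1 (isoform 1, Δ539-561, baculovirus-expressed), 0.25 nM, preincubated 30 min at room temperature with compound (2% DMSO) in 20 mM Bicine pH 7.6, then reacted with 30 nM 3H-SAM and 250 nM biotinylated H3 16-30 peptide (R26 monomethyl). Stopped with 300 uM cold SAM; labelled peptide captured on streptavidin Flashplate; % inhibition versus DMSO and 1 mM SAH controls fitted to a 4- or 3-parameter curve.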

The test system of experiment [3] is asymmetric di-methyl PABP1 in RKO cells. The experiment is described as follows: In Cell Western (ICW) for asymmetric di-methyl PABP1 and DNA content in RKO cells. The format is cell-based. The following applies: Homo sapiens, RKO. The source says:
RKO adherent cells were purchased from ATCC (American Type Culture Collection), Manassas, Va., USA. DMEM/Glutamax medium, penicillin-streptomycin, heat inactivated fetal bovine serum, 0.05% trypsin and D-PBS were purchased from Life Technologies, Grand Island, N.Y., USA. Odyssey blocking buffer, 800CW goat anti-rabbit IgG (H+L) antibody, and Licor Odyssey infrared scanner were purchased from Licor Biosciences, Lincoln, Nebr., USA. Mono-methyl arginine antibody was purchased from Cell Signaling Technology, Danvers, Mass., USA. Methanol was purchased from VWR, Franklin, Mass., USA. 10% Tween 20 was purchased from KPL, Inc., Gaithersburg, Md., USA. […] was purchased from Biostatus Limited, Leicestershire, UK. RKO adherent cells were maintained in growth medium (DMEM/Glutamax medium supplemented with 10% v/v heat inactivated fetal bovine serum and 100 units/mL penicillin-streptomycin) and cultured at 37° C. under 5% CO2. Cell Treatment, in Cell Western (ICW) for Detection of Asymmetric Di-Methyl PABP1 and DNA Content. RKO cells were seeded in assay medium at a concentration of 30,000 cells per mL to a poly-D-lysine coated 384 well culture plate (BD Biosciences 356697) with 50 μL per well. Compound (100 nL) from a 96-well source plate was added directly to 384 well cell plate. Plates were incubated at 37° C., 5% CO2 for 48 hours. After two days of incubation, plates were brought to room temperature outside of the incubator for ten minutes and blotted on paper towels to remove cell media. Cells were fixed for 20 minutes at room temperature by adding 50 μl of 8% PFA followed by aspiration of supernatant with the Biotek EL406 plate washer. Cells were then permeabilized by addition of 50 μL of ice cold 100% methanol directly to each well and incubated for 30 min at room temperature. After 30 min, plates were transferred to a Biotek EL406 plate washer and washed 2 times with 100 μL per well of wash buffer (1×PBS). Next 60 μL per well of Odyssey blocking buffer (Odyssey Buffer with 0.1% Tween 20 (v/v)) were added to each plate and incubated 1 hour at room temperature. Blocking buffer was removed and 20 μL per well of primary antibody was added (asymmetric-methyl PABP1) diluted 1:400 in Odyssey buffer with 0.1% Tween 20 (v/v)) and plates were incubated overnight (16 hours) at 4° C. Plates were washed 5 times with 100 μL per well of wash buffer. Next 20 μL per well of secondary antibody was added (1:800 800CW goat anti-rabbit IgG (H+L) antibody, 1:2000 DRAQS in Odyssey buffer with 0.1% Tween 20 (v/v)) and incubated for 1 hour at room temperature. The plates were washed 5 times with 100 μL per well wash buffer then 2 times with 100 μL per well of water. Plates were allowed to dry at room temperature then imaged on the Licor Odyssey machine which measures integrated intensity at 700 nm and 800 nm wavelengths. Both 700 and 800 channels were scanned. Calculations: First, the ratio for each well was determined by: Each plate included fourteen control wells of DMSO only treatment (minimum inhibition) as well as fourteen control wells for maximum inhibition treated with 20 μM of a reference compound. The average of the ratio values for each control type was calculated and used to determine the percent activation for each test well in the plate. Reference compound was serially diluted three-fold in DMSO for a total of nine test concentrations, beginning at 20 μM. Percent inhibition was determined and IC50 curves were generated using triplicate wells per concentration of compound.

Chain of PRMT5 (O14744 whole entry, species assumed): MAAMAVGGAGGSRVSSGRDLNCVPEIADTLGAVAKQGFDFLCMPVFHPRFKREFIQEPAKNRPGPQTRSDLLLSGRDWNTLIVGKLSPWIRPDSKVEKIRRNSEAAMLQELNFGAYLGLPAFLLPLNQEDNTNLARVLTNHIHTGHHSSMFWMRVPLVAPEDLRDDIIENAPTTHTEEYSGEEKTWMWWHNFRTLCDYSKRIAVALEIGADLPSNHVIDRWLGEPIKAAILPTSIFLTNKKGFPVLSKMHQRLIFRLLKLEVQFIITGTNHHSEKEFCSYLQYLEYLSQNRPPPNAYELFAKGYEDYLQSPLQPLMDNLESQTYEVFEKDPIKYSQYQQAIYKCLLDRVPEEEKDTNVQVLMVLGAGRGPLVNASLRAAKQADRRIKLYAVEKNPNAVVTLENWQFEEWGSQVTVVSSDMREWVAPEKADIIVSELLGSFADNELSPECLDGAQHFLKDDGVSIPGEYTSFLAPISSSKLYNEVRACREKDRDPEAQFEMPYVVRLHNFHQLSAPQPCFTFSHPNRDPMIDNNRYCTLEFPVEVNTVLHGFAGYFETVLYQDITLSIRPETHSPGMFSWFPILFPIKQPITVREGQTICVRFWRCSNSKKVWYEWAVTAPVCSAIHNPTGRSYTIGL
Chain of PRMT5 (Q9BQA1 whole entry partner, species assumed): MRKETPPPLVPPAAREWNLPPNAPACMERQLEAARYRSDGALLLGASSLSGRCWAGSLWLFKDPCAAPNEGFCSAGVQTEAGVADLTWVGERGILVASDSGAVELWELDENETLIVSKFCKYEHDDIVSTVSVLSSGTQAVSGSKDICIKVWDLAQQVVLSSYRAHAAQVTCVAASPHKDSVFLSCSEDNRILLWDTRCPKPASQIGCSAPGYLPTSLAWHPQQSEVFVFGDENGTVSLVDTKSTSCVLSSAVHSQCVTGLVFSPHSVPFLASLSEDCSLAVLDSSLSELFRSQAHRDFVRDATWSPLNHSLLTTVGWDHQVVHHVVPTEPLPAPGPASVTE

For the compound `NCCNCc1ccc(-c2ccc3cnn(Cc4ccncc4)c3c2)cc1` [Compound 350], in experiment [1], the 50% inhibitory concentration (IC50) came out at 172 nM.
For the compound `CN(CCc1ccccn1)C(=O)c1cncc(-c2ccc(CNCCN)cc2)c1` [Compound 357], the concentration for half-maximal inhibition (IC50) in experiment [1] was determined as 393 nM.
With `CCN(c1cc(-c2cccc(CN(C)CCNC)c2)cc(C(=O)NCc2c(C)cc(C)[nH]c2=O)c1C)C1CCOCC1` [Compound 387], the results for the half-maximal inhibitory concentration (IC50) in experiment [2] and in experiment [3] (48 h) were 97.2 nM and 10900 nM, respectively.
For the compound `Cc1c(N(C)CC2CC2)cc(-c2cccc(CN(C)CCN)c2)cc1N1CCOCC1` [Compound 241], the IC50 in experiment [2] was 51 nM; in experiment [3] (In Cell Western) it was 5690 nM.
On to `CC(C)n1ncc2c(C(=O)NCc3cnc4ccccn34)cc(-c3cccc(CN(C)CCN)c3)nc21` [Compound 194], for which the IC50 in experiment [2] stood at 13.6 nM; in experiment [3] (In Cell Western), 1200 nM.
Regarding `CC(C)n1ncc2c(C(=O)N3CCSCC3)cc(-c3cccc(CN(C)CCN)c3)nc21` [Compound 258], the 50% inhibitory concentration (IC50) in experiment [2] is 64.2 nM; in experiment [3] (In Cell Western), 18500 nM.
Regarding `CC(C)n1ncc2c(C(=O)N(C)Cc3ccccc3)cc(-c3cccc(CNCCN)c3)nc21` [Compound 238], the values for the IC50 in experiment [2] and in experiment [3] (In Cell Western) were 48.1 nM and 20000 nM, respectively.
For `CC(C)n1ncc2c(C(=O)NCc3cccc4ccnn34)cc(-c3cccc(CN(C)CCN)c3)nc21` [Compound 197], the IC50 in experiment [2] was 15 nM; in experiment [3] (In Cell Western), 1660 nM.
Consider `CNCCN(C)Cc1cccc(-c2cc(C(=O)N(C)CC3CCOCC3)c3cnn(C(C)C)c3n2)c1` [Compound 298], for which the IC50 in experiment [2] amounted to 200 nM; in experiment [3] (In Cell Western), 9620 nM.
`CNCCN(C)Cc1cccc(-c2cc(C(O)c3ccncc3)c3cnn(C(C)C)c3n2)c1` (stereo not drawn) [Compound 307]: the IC50 in experiment [2] was 250 nM; in experiment [3] (In Cell Western), 20000 nM.
For `CCn1ncc2c(C(=O)NC3CCOCC3)cc(-c3cccc(CN(C)CCNC)c3)nc21` [Compound 253], the 50% inhibitory concentration (IC50) in experiment [2] was 61.3 nM; in experiment [3] (In Cell Western), 6090 nM.
Take `CNCCN(C)Cc1cccc(-c2cc(C(=O)NCc3cncn3C)c3cnn(C(C)C)c3n2)c1` [Compound 280]: the results for the IC50 in experiment [2] and in experiment [3] (In Cell Western) were 113 nM and 9490 nM, respectively.
Regarding `CCN(Cc1cccnc1)C(=O)c1cc(-c2cccc(CN(C)CCNC)c2)nc2c1cnn2C(C)C` [Compound 254], the IC50 in experiment [2] was 61.8 nM; in experiment [3] (In Cell Western), 5520 nM.
For `CNCCN(C)Cc1cccc(-c2cc(C(=O)NCc3cn4cccc(C)c4n3)c3cnn(C(C)C)c3n2)c1` [Compound 181], in that order: 9.63 nM and 733 nM.
Turning to `CNCCN(C)Cc1cccc(-c2cc(C(=O)N(C)C3CC3)c3cnn(C(C)C)c3n2)c1` [Compound 292], the half-inhibitory concentration (IC50) is 171 nM in experiment [2] and 14000 nM in experiment [3] (In Cell Western).
For `CNCCN(C)Cc1cccc(-c2nc(NC3CCOCC3)c3cnn(C4CC4)c3n2)c1` [Compound 179], in that order: 8.88 nM and 4870 nM.
Consider `CNCCN(C)Cc1cccc(-c2cc(-c3ccsc3)c3cnn(C(C)C)c3n2)c1` [Compound 235], for which the figures for the IC50 in experiment [2] and in experiment [3] (In Cell Western) were 45.8 nM and 20000 nM, respectively.
For `CNCCN(C)Cc1cccc(-c2cc(C(=O)N[C@@H](C)c3ccccc3)c3cnn(Cc4ccncc4)c3n2)c1` [Compound 260], the IC50 in experiment [2] stood at 68.2 nM; in experiment [3] (In Cell Western) it was 20000 nM.
Consider `Cc1c(CNC(=O)c2cc(-c3cccc(CN(C)CCN)c3)nc3c2cnn3C(C)C)cnn1C` [Compound 183], for which the IC50 in experiment [2] worked out at 11.6 nM; in experiment [3] (In Cell Western), 1970 nM.
As for `CNCCN(C)Cc1cccc(-c2cc(C(=O)NC3CC3)c3cnn(C(C)C)c3n2)c1` [Compound 228], the IC50 turned out to be 41.2 nM in experiment [2] and 1910 nM in experiment [3] (In Cell Western).
For the compound `CNCCN(C)Cc1cccc(-c2cc(C(=O)NCc3nccs3)c3cnn(C(C)C)c3n2)c1` [Compound 207], the IC50 was found to be 20.6 nM in experiment [2] and 1640 nM in experiment [3] (In Cell Western).
Consider `CC(C)n1ncc2c(C(=O)NCc3cccnc3)cc(-c3cccc(CN(C)CCN)c3)nc21` [Compound 195], for which the concentration for half-maximal inhibition (IC50) in experiment [2] came to 13.9 nM; in experiment [3] (In Cell Western) it was 1660 nM.
Turning to `CNCCN(C)Cc1cccc(-c2cc(C(=O)NCc3nccn3C)c3cnn(C(C)C)c3n2)c1` [Compound 212], the IC50 in experiment [2] is 24.9 nM; in experiment [3] (In Cell Western) it was 1800 nM.
With `CCNCCN(C)Cc1cccc(-c2cc(C(=O)NCC3CCOCC3)c3cnn(C(C)C)c3n2)c1` [Compound 271], the half-inhibitory concentration (IC50) amounted to 81.4 nM in experiment [2] and 20000 nM in experiment [3] (In Cell Western).
In the case of `CNCCN(C)Cc1cccc(-c2cc(C(=O)NC3CCOCC3)c3cnn(C(C)C)c3n2)c1` [Compound 233, 1-isopropyl-6-(3-((methyl(2-(methylamino)ethyl)amino)methyl)phenyl)-N-(tetrahydro-2H-pyran-4-yl)-1H-pyrazolo[3,4-b]pyridine-4-carboxamide], the IC50 in experiment [2] turned out to be 42.6 nM; in experiment [3] (In Cell Western), 843 nM.
Turning to `CNCCN(C)Cc1cccc(-c2cc(N3CCCC3)c3cnn(C(C)C)c3n2)c1` [Compound 214], the figures for the IC50 in experiment [2] and in experiment [3] (In Cell Western) were 26.6 nM and 20000 nM, respectively.
As to `CC(C)n1ncc2c(NC(=O)NC3CCOCC3)cc(-c3cccc(CN(C)CCN)c3)nc21` [Compound 175], the half-maximal inhibitory concentration (IC50) was 6.94 nM in experiment [2] and 11500 nM in experiment [3] (In Cell Western).
In the case of `CC(C)n1ncc2c(C(=O)NC3CC3)cc(-c3cccc(CN(C)CCN)c3)nc21` [Compound 210], the IC50 was 22.4 nM in experiment [2] and 2000 nM in experiment [3] (In Cell Western).
In the case of `CNCCN(C)Cc1cccc(-c2cc(C(=O)N3Cc4cccnc4C3)c3cnn(C(C)C)c3n2)c1` [Compound 301], the results for the concentration for half-maximal inhibition (IC50) in experiment [2] and in experiment [3] (In Cell Western) were 209 nM and 15500 nM, respectively.
Turning to `CC(C)n1ncc2c(C(=O)NCC3CCOCC3)cc(-c3cccc(CN(C)CCNC4CCC4)c3)nc21` [Compound 273], the half-maximal inhibitory concentration (IC50) stood at 87.7 nM in experiment [2] and 14500 nM in experiment [3] (In Cell Western).
In the case of `CNCCN(C)Cc1cccc(-c2cc(C(=O)NCc3cccnc3)c3cnn(C(C)C)c3n2)c1` [Compound 199], the concentration for half-maximal inhibition (IC50) in experiment [2] was determined as 15.9 nM; in experiment [3] (In Cell Western) it was 2180 nM.
With `CC(C)n1ncc2c(C(=O)N3CCOCC3)cc(-c3cccc(CN(C)CCN)c3)nc21` [Compound 279], the half-inhibitory concentration (IC50) in experiment [2] was 113 nM; in experiment [3] (In Cell Western), 18700 nM.
For `CCNC(=O)c1cc(-c2cccc(CN(C)CCNC)c2)nc2c1cnn2C(C)C` [Compound 255], in that order: 62.3 nM and 3870 nM.
Take `CNCCN(C)Cc1cccc(-c2cc(C(=O)NC3CCOCC3)c3cnn(CC(F)(F)F)c3n2)c1` [Compound 270]: the half-inhibitory concentration (IC50) in experiment [2] is 81 nM; in experiment [3] (In Cell Western), 5140 nM.

One may read the IC50 as the concentration that gives 50% inhibition.
